Measured values published in US10307425B2, “Compositions and methods for treating toxoplasmosis, cryptosporidiosis and other apicomplexan protozoan related diseases” (UNIVERSITY OF WASHINGTON, priority 2015, dated 2019).

Biological target: TgCDPK1 (Toxoplasma gondii, UniProt Q9BJF5)
Experiment: biochemical

TgCDPK1, sequence (Q9BJF5 1-507): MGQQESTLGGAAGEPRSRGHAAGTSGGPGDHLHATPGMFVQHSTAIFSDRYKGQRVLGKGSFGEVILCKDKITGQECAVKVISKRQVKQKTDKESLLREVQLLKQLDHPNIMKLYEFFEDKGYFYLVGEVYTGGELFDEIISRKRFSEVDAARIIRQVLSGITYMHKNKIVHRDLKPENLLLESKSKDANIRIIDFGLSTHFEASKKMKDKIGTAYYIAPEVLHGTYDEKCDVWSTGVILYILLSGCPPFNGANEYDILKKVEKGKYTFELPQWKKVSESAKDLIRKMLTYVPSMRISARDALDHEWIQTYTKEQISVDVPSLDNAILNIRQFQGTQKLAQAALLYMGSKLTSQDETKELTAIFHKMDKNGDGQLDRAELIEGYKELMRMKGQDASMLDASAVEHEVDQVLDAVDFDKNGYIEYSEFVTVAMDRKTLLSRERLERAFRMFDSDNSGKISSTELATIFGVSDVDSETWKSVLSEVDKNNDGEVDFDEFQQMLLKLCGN

| Structure (SMILES) | IC50 [nM] |
| --- | --- |
| CC(C)(CO)Cn1nc(-c2ccc3nc(OCC(F)(F)F)ccc3c2)c2c(N)ncnc21 [Example 2, 3-(4-Amino-3-(2-(2,2,2-trifluoroethoxy)quinolin-6-yl)-1H-pyrazolo[3,4-d]pyrimidin-1-yl)-2,2-dimethylpropan-1-ol] | 17.2 |
| CC(C)Cn1nc(-c2ccc3cc(OC4CC4)ccc3c2)c2c(N)ncnc21 [Example 9, 3-(6-cyclopropoxynaphthalen-2-yl)-1-isobutyl-1H-pyrazolo[3,4-d]pyrimidin-4-amine] | 6 |
| CN1CCC(Cn2nc(-c3ccc4cc(OC5COC5)ccc4c3)c3c(N)ncnc32)CC1 [Example 12, 1-((1-Methylpiperidin-4-yl)methyl)-3-(6-(oxetan-3-yloxy)naphthalen-2-yl)-1H-pyrazolo[3,4-d]pyrimidin-4-amine] | 10.7 |
| Nc1ncnc2c1c(-c1ccc3cc(OCC4CC4)ccc3c1)nn2CC1CCOCC1 [Example 29, 3-(6-(cyclopropylmethoxy)naphthalen-2-yl)-1-((tetrahydro-2H-pyran-4-yl)methyl)-1H-pyrazolo[3,4-d]pyrimidin-4-amine] | 4.8 |
| Nc1ncnc2c1c(-c1ccc3cc(OC4CCC4)ccc3c1)nn2CC1CCOCC1 [Example 30, 3-(6-cyclobutoxynaphthalen-2-yl)-1-((tetrahydro-2H-pyran-4-yl)methyl)-1H-pyrazolo[3,4-d]pyrimidin-4-amine] | 2.6 |
| Nc1ncnc2c1c(-c1ccc3cc(OC4COC4)ccc3c1)nn2CC1CCOCC1 [Example 31, 3-(6-(oxetan-3-yloxy)naphthalen-2-yl)-1-((tetrahydro-2H-pyran-4-yl)methyl)-1H-pyrazolo[3,4-d]pyrimidin-4-amine] | 35.8 |
| CCOc1ccc2cc(-c3nn(CC(C)(C)CO)c4ncnc(N)c34)ccc2c1 [Example 32, 3-(4-amino-3-(6-ethoxynaphthalen-2-yl)-1H-pyrazolo[3,4-d]pyrimidin-1-yl)-2,2-dimethylpropan-1-ol] | 1.2 |
| CC(C)Cn1nc(-c2ccc3cc(OCCO)ccc3c2)c2c(N)ncnc21 [Example 34, 2-(6-(4-amino-1-isobutyl-1H-pyrazolo[3,4-d]pyrimidin-3-yl)naphthalen-2-yloxy)ethanol] | 5.8 |
| CC(C)Cn1nc(-c2ccc3cc(OC4COC4)ccc3c2)c2c(N)ncnc21 [Example 35, 1-isobutyl-3-(6-(oxetan-3-yloxy)naphthalen-2-yl)-1H-pyrazolo[3,4-d]pyrimidin-4-amine] | 4 |
| COCCOc1ccc2cc(-c3nn(CC(C)C)c4ncnc(N)c34)ccc2c1 [Example 36, 1-isobutyl-3-(6-(2-methoxyethoxy)naphthalen-2-yl)-1H-pyrazolo[3,4-d]pyrimidin-4-amine] | 1.7 |
| CCOc1ccc2cc(-c3nn(CC(C)(C)CO)c4ncnc(N)c34)ccc2n1 [Example 37, 3-(4-amino-3-(2-ethoxyquinolin-6-yl)-1H-pyrazolo[3,4-d]pyrimidin-1-yl)-2,2-dimethylpropan-1-ol] | 1.7 |
| COCCOc1ccc2cc(-c3nn(CC(C)(C)C)c4ncnc(N)c34)ccc2n1 [Example 38, 3-(2-(2-methoxyethoxy)quinolin-6-yl)-1-neopentyl-1H-pyrazolo[3,4-d]pyrimidin-4-amine] | 3.8 |
| Nc1ncnc2c1c(-c1ccc3nc(OC4CC4)ccc3c1)nn2CC1CCNCC1 [Example 39, 3-(2-cyclopropoxyquinolin-6-yl)-1-(piperidin-4-ylmethyl)-1H-pyrazolo[3,4-d]pyrimidin-4-amine] | 1 |
| Nc1ncnc2c1c(-c1ccc3nc(OC4CC4)ccc3c1)nn2CC1CNC1 [Example 40, 1-(azetidin-3-ylmethyl)-3-(2-cyclopropoxyquinolin-6-yl)-1H-pyrazolo[3,4-d]pyrimidin-4-amine] | 2.3 |
| CN1CC(Cn2nc(-c3ccc4nc(OC5CC5)ccc4c3)c3c(N)ncnc32)C1 [Example 41, 3-(2-cyclopropoxyquinolin-6-yl)-1-((1-methylazetidin-3-yl)methyl)-1H-pyrazolo[3,4-d]pyrimidin-4-amine] | 2.8 |
| COCCOc1ccc2cc(-c3nn(CC4CCN(C)CC4)c4ncnc(N)c34)ccc2n1 [Example 42, 3-(2-(2-methoxyethoxy)quinolin-6-yl)-1-((1-methylpiperidin-4-yl)methyl)-1H-pyrazolo[3,4-d]pyrimidin-4-amine] | 8 |
| Nc1ncnc2c1c(-c1ccc3nc(OCC(F)(F)F)ccc3c1)nn2CC1CCNCC1 [Example 44, 1-(piperidin-4-ylmethyl)-3-(2-(2,2,2-trifluoroethoxy)quinolin-6-yl)-1H-pyrazolo[3,4-d]pyrimidin-4-amine] | 1.4 |
| CC(C)(COCCO)Cn1nc(-c2ccc3nc(OC4CC4)ccc3c2)c2c(N)ncnc21 [Example 45, 2-(3-(4-amino-3-(2-cyclopropoxyquinolin-6-yl)-1H-pyrazolo[3,4-d]pyrimidin-1-yl)-2,2-dimethylpropoxy)ethanol] | 1200 |
| CC(C)(O)Cn1nc(-c2ccc3nc(OCC(F)(F)F)ccc3c2)c2c(N)ncnc21 [Example 46, 1-(4-amino-3-(2-(2,2,2-trifluoroethoxy)quinolin-6-yl)-1H-pyrazolo[3,4-d]pyrimidin-1-yl)-2-methylpropan-2-ol] | 18.3 |
| CCOc1ccc2ccc(-c3nn(CC(C)C)c4ncnc(N)c34)cc2c1 [Example 47, 3-(7-ethoxynaphthalen-2-yl)-1-isobutyl-1H-pyrazolo[3,4-d]pyrimidin-4-amine] | 10.8 |
| CCOc1ccc2ccc(-c3nn(CC4CCNCC4)c4ncnc(N)c34)cc2c1 [Example 48, 3-(7-ethoxynaphthalen-2-yl)-1-(piperidin-4-ylmethyl)-1H-pyrazolo[3,4-d]pyrimidin-4-amine] | 19.1 |
| CCOc1ccc2cc(-c3nn(CC4(C)COC4)c4ncnc(N)c34)ccc2c1 [Example 49, 3-(6-ethoxynaphthalen-2-yl)-1-((3-methyloxetan-3-yl)methyl)-1H-pyrazolo[3,4-d]pyrimidin-4-amine] | 2.9 |
| CCOc1ccc2cc(-c3nn(CC(=O)N4CCOCC4)c4ncnc(N)c34)ccc2c1 [Example 50, 2-(4-amino-3-(6-ethoxynaphthalen-2-yl)-1H-pyrazolo[3,4-d]pyrimidin-1-yl)-1-morpholinoethanone] | 42.9 |
| Nc1ncnc2c1c(-c1ccc3cc(OC4CC4)ccc3c1)nn2CC(=O)N1CCOCC1 [Example 51, 2-(4-amino-3-(6-cyclopropoxynaphthalen-2-yl)-1H-pyrazolo[3,4-d]pyrimidin-1-yl)-1-morpholinoethanone] | 15.8 |
| COCc1ccc2cc(-c3nn(CC(O)(C(F)(F)F)C(F)(F)F)c4ncnc(N)c34)ccc2c1 [Example 52, 2-((4-amino-3-(6-(methoxymethyl)naphthalen-2-yl)-1H-pyrazolo[3,4-d]pyrimidin-1-yl)methyl)-1,1,1,3,3,3-hexafluoropropan-2-ol] | 84.2 |
| Nc1ncnc2c1c(-c1ccc3nc(OC4CC4)ccc3c1)nn2CC(O)(C(F)(F)F)C(F)(F)F [Example 53, 2-((4-amino-3-(2-cyclopropoxyquinolin-6-yl)-1H-pyrazolo[3,4-d]pyrimidin-1-yl)methyl)-1,1,1,3,3,3-hexafluoropropan-2-ol] | 47.3 |
| CC(C)(O)Cn1cc(-c2ccc3nc(OC4CC4)ccc3c2)c2c(N)ncnc21 [Example 55, 1-(4-amino-5-(2-cyclopropoxyquinolin-6-yl)-7H-pyrrolo[2,3-d]pyrimidin-7-yl)-2-methylpropan-2-ol] | 3.2 |
